The conditions of series [1]: Dobrez et al. 2004; cited from earlier work.
The subject of a further series is renin gene promoter. The series can be described thus: Renin promoter-luciferase reporter assay. It is filed as cell-based. An excerpt:
Using an in vitro cell culture system, the activity of paricalcitol to suppress renin gene expression was examined using previously published techniques (1,25-Dihydroxyvitamin D3 is a negative endocrine regulator of the renin-angiotensin system, J. Clin. Invest., July 2002). […] This inhibitory effect is confirmed by renin promoter-luciferase reporter assays, which examine the activity of paricalcitol to suppress renin gene transcription.
In the present study, an investigation was made of the in vitro and in vivo activity of paricalcitol, a FDA-approved low calcemic vitamin D analog, to inhibit renin biosynthesis. To this end, As4.1-hVDR cells, a JG cell-like cell line stably transfected with human VDR, was treated with paricalcitol or 1,25(OH)2D3 at doses ranging from 10^−10 to 10^−7 M for 24 hours, and its renin-inhibiting activity was assessed by Northern blot analyses; the cells were also transfected with renin gene promoter-luciferase reporter plasmid, and luciferase activity was determined in the presence and absence of paricalcitol or 1,25(OH)2D3.

Series [2] in a line: Vascular calcification in 5/6 nephrectomized uremic rats. It is filed as in vivo, rat. As for the experimental part:
The 5/6 nephrectomized rats were obtained from Charles River Labs. (Wilmington, Mass.). Two weeks after nephrectomy, rats were put on a diet containing 0.9% phosphorous and 0.6% calcium for 4 weeks, followed by treatment with vehicle (5% ethanol+95% propylene glycol, 0.4 ml/kg), paricalcitol or doxercalciferol at 0.67 μg/kg, i.p., 3 times/week, for 2 weeks. Twenty-four hours after the last dosing, blood was collected via tail vein under ketamine anesthesia (50 mg/kg) and aorta collected for calcification studies. […] After the aortas were removed in a sterile manner from the rats, the aventitia was gently removed and each aorta was washed three times with medium. A segment of each aorta was processed for calcium and phoshphorus determination. A separate portion of each aorta was denuded, cut into 2-3-mm rings and placed in DMEM containing 0.2 μCi/ml ^45Ca for 3 days at 37° C. Afterwards, aortic rings were washed, dried, weighed, and then dissolved to determine radioactivity. […] Both paricalcitol and doxercalciferol at 0.67 μg/kg elevated iCa (˜25%) and suppressed PTH (>90%).

Series [3] can be described thus: Observational cohort study of hospitalization outcomes in hemodialysis patients. The format is in vivo, human. An excerpt:
This study was expanded to include patients who received no Vitamin D receptor activator treatment. [“Improved hospitalization outcomes in hemodialysis patients treated with paricalcitol.” J. Melnick, et al., abstract book from World Congress of Nephrology, Jun. 8-12, 2003, Berlin.

For a further series, the system named is renin. In words: Renin mRNA expression in vitamin D-deficient rats. It is filed as in vivo, rat. Conditions: 0.003-0.3 μg/kg i.p. three times per week, 2 weeks. The procedure: (§1) Weanling Sprague-Dawley male rats housed in an environment free of UV light were fed a 0.4% Ca, 0.3% P, vitamin D-deficient diet for 5 weeks, then switched to a 0.02% Ca, 0.5% P, vitamin D-deficient diet for 21 days. Rats were dosed with 0.003, 0.01, 0.03, and 0.3 μg/kg of paricalcitol, i.p., three times per week, for the final 2 weeks. A control group of animals was given vehicle only (5% ethanol/95% propylene glycol), and untreated, age-matched animals on normal diet (0.5% Ca, 0.4% P) served as normal peer control. Twenty-four hours after the last dose, the rats were anesthetized with ketamine (100 mg/kg), cardiac bled, killed by CO2, tissues collected for RNA extraction and real-time RT-PCR analysis, and serum taken for determination of calcium, phosphorus, and PTH.

The nature of series [4]: Renin mRNA expression in vitamin D-deficient rats. The format is in vivo, rat. Conditions: 0.003-0.3 μg/kg i.p. three times per week, 2 weeks. The procedure:
as §1

Series [5] is classed as in vivo, rat. As for the experimental part:
It is clinically important to suppress elevated serum PTH levels in ESRD patients with established secondary hyperparathyroidism (SHPT) independent of hypercalcemia. Moreover, the 5/6 uremic rat model has effectively predicted the clinical profile of vitamin D analogues with respect to PTH and hypercalcemia. Thus, a direct comparison was conducted of paricalcitol (PARI) and doxercalciferol (DOX) in male Sprague Dawley rats subjected to 5/6 nephrectomy (surgical ablation) placed on 4 weeks of a high phosphorous diet (0.9% phos., 0.6% Ca) to establish SHPT. On Day 0, rats received vehicle (VEH; 5% ethanol, 95% propylene glycol; 0.4 ml/kg; IP) or drug (0.083, 0.17, 0.33, 0.66 mcg/kg; n=7-10/group) 3 times/week for 12 days. Blood samples were collected 24 hr post dose (Day 13). Day 0 values (mean±SEM) for: creatinine (VEH vs sham) were 1.02±0.05 vs 0.48±0.01 mg/dL; PTH, 1320±185 vs 178±11 pg/ml; blood ionized calcium (iCa; 1.26±0.01 vs 1.30±0.01 mmol/L); phosphorous (8.70±0.34 vs 7.36±0.09 mg/dL). In VEH, the ratio of Day 13/Day 0 iCa values declined to 0.93±0.02 vs 1.02±0.01 for sham; PTH and phosphorous tended to increase. […] PARI had no effect on iCa at 0.33 mcg/kg whereas the iCa ratio increased modestly to 1.05±0.02*# at 0.66 mcg/kg, less than that of DOX. The Day 13/Day 0 PTH ratios for DOX fell to 0.43±0.12, 0.26±0.06*, and 0.22±0.11* in response to 0.18, 0.33, 0.66 mcg/kg, respectively, while PARI decreased PTH ratios to 0.37±0.07*, 0.33±0.06*, 0.13±0.02*. Serum phosphorus was not affected in any treatment group. […] Thus, in the uremic rat with established SHPT, DOX suppresses serum PTH levels concomitant with dose-dependent elevations in ionized calcium greater than those caused by equal doses of. PARI. At these doses, PARI effectively reduces PTH without eliciting dose-dependent changes in ionized blood calcium. *=p<0.05 vs. VEH ANOVA; # p<0.05 unpaired t test DOX vs PARI

In a further series the test system is 24(OH)ase. The series can be described thus: Effect of drugs on the expression of 24(OH)ase. Particulars: relative to calcitriol. The format is cell-based. The procedure:
Two observations may be noted in these studies: (1) 100% inhibition of growth was never achieved even at 1 μM of any of the test compound. Confocal microscopy studies confirm that, although these drugs are potent in inducing the translocation of VDR from cytoplasm to nucleus, not all cells respond to VDRAs even after 2 h of exposure, which may explain the <100% inhibition. […] Paricalcitol is usually dosed approximately 4 fold higher than calcitriol in the clinical situation, which may translate into a 4-fold higher potency in regulating the function of smooth muscle cells.

Where [6] appears, read: 0.67 μg/kg i.p. 3 times/week for 2 weeks.

“Also recorded” adds a separate entry of the source. Like-named read-outs stand apart in the source and are kept apart here.

As to `C[C@H](/C=C/[C@H](C)C(C)(C)O)[C@H]1CC[C@H]2/C(=C/C=C3C[C@@H](O)C[C@H](O)C3)CCC[C@]12C` [paricalcitol], in series [1], the “hospitalizations related to cardiovascular events and non-infectious inflammations compared with calcitriol” value is “fewer hospitalizations”. In the series on renin gene promoter, the “potency in suppressing renin gene promoter activity relative to calcitriol / 1,25(OH)2D3” value is reported as “comparable to that of 1,25(OH)2D3; also recorded: at least as potent as calcitriol”. Besides, in the series on renin gene promoter (As4.1-hVDR cells), the “effect on renin gene transcription” value was “suppresses”. In addition, in series [2] (0.67 μg/kg), the “elevation of iCa” value is recorded as about 25%. For the same molecule, in series [2] (setting [6]), the “Ca content in aorta compared to vehicle” value came out at 1.6 fold and the “phosphorus content in aorta compared to vehicle” value was “no significant difference”. Also, the “45Ca uptake in aorta rings compared to vehicle” value in series [2] (0.67 μg/kg i.p. 3 times/week for 2 weeks, rings 3 days in 45Ca) is “no significant difference”. Further, in series [3] (hemodialysis patients, FIG. 2), the “median number of days spent in the hospital (hospital days per year)” value was 5.2 days and the “median number of hospitalizations in a year” value amounted to 1.5. Besides, in series [3] (regression analysis, FIG. 3), the “fewer hospital days compared to the No Vitamin D group” value is 17.5 days and the “fewer hospitalizations compared to the No Vitamin D group” value is recorded as 1.2. For the same molecule, the “renal renin mRNA expression” value with renin is recorded as “normalized”. Moreover, in series [4], the calcium result was “did not result in a significant change” and the “serum PTH” value is listed as “reduced serum PTH dose-dependently”. Moreover, in series [5] (0.18 mcg/kg IP 3 times/week for 12 days), the “Day 13/Day 0 PTH ratio” value is 0.37±0.07. The “Day 13/Day 0 PTH ratio” value in series [5] (0.33 mcg/kg IP 3 times/week for 12 days) is recorded as 0.33±0.06. The “Day 13/Day 0 PTH ratio” value in series [5] (0.66 mcg/kg IP 3 times/week for 12 days) is recorded as 0.13±0.02. Further, in the series on 24(OH)ase, the “potency on stimulating the expression of 24(OH)ase” value was “less potent than calcitriol”.

The values are drawn from patent US20060171983A1, “Use of Vitamin D receptor activators or Vitamin D analogs to treat cardiovascular disease” (priority 2003, published 2006).
